According to US20190315823A1, “SMALL CATIONIC ANTI-BIOFILM AND IDR PEPTIDES” (priority 2013, published 2019):
Read-outs that look alike come from different tables or passages of the source. Ends that are not written are not given here. Peptide text beside a SMILES is read from it.

Legend:
Assay type in all cases: cell-based
[1] = tested on: human peripheral blood mononuclear cells (MCP-1); test: MCP-1 chemokine production by ELISA
Description: FIG. 19. High production of anti-infective chemokine MCP-1 by human peripheral blood mononuclear cells treated with peptides, as determined by ELISA after 24 hours of stimulation.
Venous blood (20 ml) from healthy volunteers was collected in Vacutainer® collection tubes containing sodium heparin as an anticoagulant (Becton Dickinson, Mississauga, ON) in accordance with UBC ethical approval and guidelines. Blood was diluted 1:1 with complete RPMI 1640 medium and separated by centrifugation over a Ficoll-Paque® Plus (Amersham Biosciences, Piscataway, N.J., USA) density gradient. White blood cells were isolated from the buffy coat, washed twice in RPMI 1640 complete medium, and the number of peripheral blood mononuclear cells (PBMC) was determined by Trypan blue exclusion. PBMC (5×10^5) were seeded into 12-well tissue culture dishes (Falcon; Becton Dickinson) at 0.75 to 1×10^6 cells/ml at 37° C. in 5% CO2. The above conditions were chosen to mimic conditions for circulating blood monocytes entering tissues at the site of infection via extravasation.
Following incubation of the cells under various treatment regimens, the tissue culture supernatants were centrifuged at 1000×g for 5 min, then at 10,000×g for 2 min to obtain cell-free samples. Supernatants were aliquoted and then stored at −20° C. prior to assay for various chemokines by capture ELISA (eBioscience and BioSource International Inc., CA, USA respectively)

[2] = tested on: Pseudomonas aeruginosa (Pa) biofilm; test: static abiotic solid surface (microtiter, crystal violet) / Bioflux biofilm inhibition screen
Description: FIG. 1. Identification of new anti-biofilm peptides active against P. aeruginosa using the microtiter plate screening method with crystal violet staining. […] As a control peptide 1037 was utilized [de la Fuente Nunez et al. 2011].
Methods of assessment of anti-biofilm activity—Biofilm formation was initially analyzed using a static abiotic solid surface assay as described elsewhere (de la Fuente-Nunez et al., 2012). Dilutions (1/100) of overnight cultures were incubated in BM2 biofilm-adjusted medium [62 mM potassium phosphate buffer (pH 7), 7 mM (NH4)2SO4, 2 mM MgSO4, 10 μM FeSO4, 0.4% (wt/vol) glucose, 0.5% (wt/vol) Casamino Acids], or a nutrient medium such as Luria Broth, in polypropylene microtiter plates (Falcon, United States) in the absence (control) or presence of peptide. Peptide was added at time zero (prior to adding the diluted, overnight cultures) in varying concentrations, and the decrease in biofilm formation was recorded at 22-46 h for most bacteria. Planktonic cells were removed, biofilm cells adhering to the side of the tubes were stained with crystal violet, and absorbance at 595 nm was measured using a microtiter plate reader (Bio-Tek Instruments Inc., United States). Some peptides were screened against two Gram negative organisms, P. aeruginosa and K. pneumoniae using a Bioflux apparatus (AutoMate Scientific, Berkeley, Calif.; http://www.autom8.com/bioflux_biofilm.html), which allows for the high-throughput, real-time analysis of biofilms.

[3] = tested on: LPS-stimulated human peripheral blood mononuclear cells (IL1-β); settings: Table 12A, cells stimulated with 10 ng/ml LPS; for Fold change in IL1β relative to no peptide LPS stimulated cells: 1002-2013 compared to LPS control of 889 pg/ml; for IL1β Production: LPS alone 984 pg/ml, starred values (1002-2013) determined separately, LPS alone 889 pg/ml
S. aureus biofilm = tested on: S. aureus biofilm
Description: (§1) Methods of assessment of anti-biofilm activity—Biofilm formation was initially analyzed using a static abiotic solid surface assay as described elsewhere (de la Fuente-Nunez et al., 2012). […] Planktonic cells were removed, biofilm cells adhering to the side of the tubes were stained with crystal violet, and absorbance at 595 nm was measured using a microtiter plate reader (Bio-Tek Instruments Inc., United States). Some peptides were screened against two Gram negative organisms, P. aeruginosa and K. pneumoniae using a Bioflux apparatus (AutoMate Scientific, Berkeley, Calif.; http://www.autom8.com/bioflux_biofilm.html), which allows for the high-throughput, real-time analysis of biofilms.

P. aeruginosa biofilm = tested on: P. aeruginosa biofilm
Description: as §1

[4] = tested on: human peripheral blood mononuclear cells (MCP-1); test: SPOT-synthesized derivative screen: production of chemokine MCP-1; settings: Table 12A, No LPS; for MCP1: background subtracted (21.3 pg/ml)
Procedure, shortened: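 MCP-1 was quantified by capture ELISA in cleared culture supernatants of treated human peripheral blood mononuclear cells. Cells came from heparinized volunteer blood via Ficoll gradient and were seeded at 0.75 to 1×10^6 cells/ml (37 °C, 5% CO2).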

[5] = concentration that reduced biofilm growth by 50%

For `CC[C@H](C)[C@H](NC(=O)[C@H](CCCNC(=N)N)NC(=O)[C@H](C)NC(=O)[C@@H](NC(=O)[C@H](CCCNC(=N)N)NC(=O)[C@H](C)NC(=O)[C@H](Cc1c[nH]c2ccccc12)NC(=O)[C@H](CCCNC(=N)N)NC(=O)[C@@H](N)C(C)C)C(C)C)C(=O)N[C@@H](CC(C)C)C(=O)N[C@@H](CCCNC(=N)N)C(=O)N[C@H](C(N)=O)C(C)C` [HE3] (H-VRWARVARILRV-NH2; N-terminus assumed), the “Notes (IDR immunomodulatory activity)” value [1] was “Weaker activity than 1018”.
In the case of VRLIRVWRVIRK (VRLIRVWRVIRK-NH2) [HE7], the “Notes (IDR immunomodulatory activity)” value [1] is reported as “No secretion of MCP-1”.
In the case of `N=C(N)NCCC[C@H](NC(=O)[C@H](CCCNC(=N)N)NC(=O)[C@H](Cc1c[nH]c2ccccc12)NC(=O)[C@H](Cc1c[nH]c2ccccc12)NC(=O)[C@H](CCCCN)NC(=O)[C@H](Cc1c[nH]c2ccccc12)NC(=O)[C@H](Cc1c[nH]c2ccccc12)NC(=O)[C@H](CCCNC(=N)N)NC(=O)[C@@H](N)CCCCN)C(N)=O` [HHC36, reference compound] (H-KRWWKWWRR-NH2; N-terminus assumed), the activity vs. biofilms ([2]; statement referring to Table 2) is reported as “completely inactive”.
With `CC[C@H](C)[C@H](NC(=O)[C@H](CC(C)C)NC(=O)[C@@H]1CCCN1C(=O)[C@H](CCCCN)NC(=O)[C@H](C)NC(=O)[C@@H](NC(=O)[C@@H](NC(=O)[C@@H](NC(=O)[C@@H](NC(=O)[C@H](CCCCN)NC(=O)[C@H](CCCCN)NC(=O)[C@H](C)NC(=O)[C@H](C)NC(=O)[C@H](CO)NC(=O)[C@@H](NC(=O)[C@H](CC(C)C)NC(=O)[C@H](CCCCN)NC(=O)[C@H](CCCCN)NC(=O)[C@@H](NC(=O)[C@H](Cc1ccccc1)NC(=O)[C@H](CO)NC(=O)[C@H](CCCCN)NC(=O)[C@H](Cc1c[nH]c2ccccc12)NC(=O)[C@@H](N)CCCCN)[C@@H](C)CC)[C@@H](C)O)C(C)C)C(C)C)[C@@H](C)O)[C@@H](C)O)C(=O)N[C@@H](CO)C(=O)N[C@@H](CO)C(N)=O` [CP26] (H-KWKSFIKKLTSAAKKVVTTAKPLISS-NH2; N-terminus assumed) the “% Biofilm Inhibition Pa” value ([2]; peptide 10 μg/ml) was 62%.
For `CC[C@H](C)[C@H](NC(=O)[C@H](Cc1c[nH]c2ccccc12)NC(=O)[C@H](CCCNC(=N)N)NC(=O)[C@@H](N)CCCNC(=N)N)C(=O)N[C@@H](CCCNC(=N)N)C(=O)N[C@H](C(=O)N[C@@H](C)C(=O)N[C@H](C(=O)N[C@H](C(=O)N[C@@H](CC(C)C)C(=O)N[C@@H](CCCNC(=N)N)C(=O)N[C@H](C(N)=O)C(C)C)[C@@H](C)CC)C(C)C)C(C)C` [HE1], the MCP-1 induction ([1]; 24 hours of stimulation, lowest peptide concentration 20 μg/ml) was “clearly superior to peptide 1018”.
In the case of `CC[C@H](C)[C@H](NC(=O)[C@H](C)N)C(=O)N[C@@H](CCCNC(=N)N)C(=O)N[C@H](C(=O)N[C@H](C(=O)N[C@@H](CCCNC(=N)N)C(=O)N[C@@H](C)C(=O)N[C@@H](CCCNC(=N)N)C(=O)N[C@@H](CC(C)C)C(=O)N[C@H](C(=O)N[C@@H](CCCNC(=N)N)C(=O)N[C@@H](CCCNC(=N)N)C(N)=O)C(C)C)C(C)C)C(C)C` [Peptide 1009] (H-AIRVVRARLVRR-NH2; N-terminus assumed), the “% Biofilm Inhibition Pa” value ([2]; Pa) biofilm, 10 μg/ml) is reported as 54%.
With `CC[C@H](C)[C@H](NC(=O)[C@H](CCCNC(=N)N)NC(=O)[C@@H](NC(=O)[C@H](CCCCN)NC(=O)[C@@H](NC(=O)[C@@H](NC(=O)[C@H](Cc1c[nH]c2ccccc12)NC(=O)[C@H](CCCNC(=N)N)NC(=O)[C@@H](N)CCCNC(=N)N)[C@@H](C)CC)C(C)C)C(C)C)C(=O)N[C@@H](CCCNC(=N)N)C(=O)N[C@@H](CCCNC(=N)N)C(=O)N[C@@H](CCCNC(=N)N)C(N)=O` [Peptide 2008] (H-RRWIVKVRIRRR-NH2; N-terminus assumed) the “Fold change in IL1β relative to no peptide LPS stimulated cells” value [3] was 0.25, the “IL1β Production” value [3] was 250 pg/mL and the “MBIC50 S. aureus” value (S. aureus biofilm; biofilm) was 10 µg/mL. The “MBIC50 P. aeruginosa” value (P. aeruginosa biofilm; biofilm) was 10 µg/mL, the “Fold increase in MCP1 cf. untreated cells” value (shortened to “Fold increase”) [4] was 2146 and the “MCP1” value [4] was 45524 pg/mL.
With RVLIRVARRVIW (RVLIRVARRVIW-NH2) [HE9] the “Notes (IDR immunomodulatory activity)” value [1] was “Weaker activity than 1018”.
For `CC[C@H](C)[C@H](NC(=O)[C@H](CCCNC(=N)N)NC(=O)[C@H](C)NC(=O)[C@H](CC(C)C)NC(=O)[C@@H](N)CCCNC(=N)N)C(=O)N[C@H](C(=O)N[C@H](C(=O)N[C@H](C(=O)N[C@@H](CCCNC(=N)N)C(=O)N[C@H](C(=O)N[C@@H](CCCNC(=N)N)C(=O)N[C@@H](CCCNC(=N)N)C(N)=O)C(C)C)[C@@H](C)CC)C(C)C)C(C)C` [Peptide E3] (H-RLARIVVIRVRR-NH2; N-terminus assumed), the “% Biofilm Inhibition Pa” value ([2]; Pa) biofilm, 10 μg/ml) was 47%.
VRRIWRR (VRRIWRR-NH2) [EH1] was tested, and the “Notes (IDR immunomodulatory activity)” value [1] was “Weaker activity than 1018”.
VRFRIWRR (VRFRIWRR-NH2) [EH2] was tested, and the “Notes (IDR immunomodulatory activity)” value [1] was “Weaker activity than 1018”.
In the case of `CC[C@H](C)[C@H](NC(=O)[C@H](CCCNC(=N)N)NC(=O)[C@@H](NC(=O)[C@H](CCCCN)NC(=O)[C@@H](NC(=O)[C@@H](NC(=O)[C@H](CC(C)C)NC(=O)[C@H](CCCNC(=N)N)NC(=O)[C@@H](N)CCCNC(=N)N)[C@@H](C)CC)C(C)C)C(C)C)C(=O)N[C@@H](Cc1c[nH]c2ccccc12)C(=O)N[C@@H](CCCNC(=N)N)C(=O)N[C@@H](CCCNC(=N)N)C(N)=O` [Peptide 2007] (H-RRLIVKVRIWRR-NH2; N-terminus assumed), the “Fold change in IL1β relative to no peptide LPS stimulated cells” value [3] is reported as 0.88, the “IL1β Production” value [3] is reported as 867 pg/mL and the “MBIC50 S. aureus” value (S. aureus biofilm; biofilm) is reported as 10 µg/mL. The “MBIC50 P. aeruginosa” value (P. aeruginosa biofilm; biofilm) was 5 µg/mL, the “Fold increase” value [4] was 386 and the “MCP1” value [4] was 7954 pg/mL.
For `CC[C@H](C)[C@H](NC(=O)[C@H](CCCNC(=N)N)NC(=O)[C@@H](NC(=O)[C@H](C)NC(=O)[C@@H](NC(=O)[C@@H](NC(=O)[C@H](CC(C)C)NC(=O)[C@H](CCCNC(=N)N)NC(=O)[C@@H](N)C(C)C)[C@@H](C)CC)C(C)C)C(C)C)C(=O)N[C@@H](CCCNC(=N)N)C(=O)N[C@@H](CCCNC(=N)N)C(=O)N[C@@H](CCCNC(=N)N)C(N)=O` [Peptide 2002] (H-VRLIVAVRIRRR-NH2; N-terminus assumed), the “Fold change in IL1β relative to no peptide LPS stimulated cells” value [3] was 0.30, the “IL1β Production” value [3] was 293 pg/mL and the “MBIC50 S. aureus” value (S. aureus biofilm; [5]) was 20 µg/mL. For the same compound, the “MBIC50 P. aeruginosa” value (P. aeruginosa biofilm; [5]) was 2.5 µg/mL, the “Fold increase” value [4] was 152 and the “MCP1” value [4] was 3215 pg/mL.
